Experimental findings from ChEMBL document CHEMBL5537187, “Discovery of N-(1-(6-Oxo-1,6-dihydropyrimidine)-pyrazole) Acetamide Derivatives as Novel Noncovalent DprE1 Inhibitors against Mycobacterium tuberculosis” (J Med Chem, 2024) are described below.

The test concerns Mycolicibacterium smegmatis. The experiment in a line: Antimycobacterial activity against Mycobacterium smegmatis overexpressing Mtb DprE1 assessed as inhibition of bacterial growth by resazurin dye based analysis. Type of test: functional, organism-based.

SMILES strings stand for the structures. Active and inactive are the calls of the source. The rule behind the calls is not given here.

With `CO[C@H]1/C=C/O[C@@]2(C)Oc3c(C)c(O)c4c(O)c(c(/C=N/N5CCN(C)CC5)c(O)c4c3C2=O)NC(=O)/C(C)=C\C=C\[C@H](C)[C@H](O)[C@@H](C)[C@@H](O)[C@@H](C)[C@H](OC(C)=O)[C@@H]1C` [RIFAMPIN], the outcome was Active.
